pIC50: −log10 of the molar value. Where two headings read alike, the source gives them in different places.
How the values were obtained:
[1] = target: T1, cellular cGAS activity in baculovirus-stimulated THP1-Dual cells (Homo sapiens (Human), UniProt Q8N884); conditions: Table 4; compounds and methyl ester prodrugs of PCT/EP2022/062480 and PCT/EP2022/062496; read-out: THP1(vir) IC50; cited from earlier work
[2] = tested on: pathway directly downstream of cGAS in cGAMP-stimulated THP1-Dual cells; conditions: Table 4; compounds and methyl ester prodrugs of PCT/EP2022/062480 and PCT/EP2022/062496; cited from earlier work
[3] = target: T2, cellular cGAS activity in dsDNA-stimulated human whole blood (Homo sapiens (Human), UniProt Q8N884); conditions: Table 4; compounds and methyl ester prodrugs of PCT/EP2022/062480 and PCT/EP2022/062496; read-out: hWB IC50; cited from earlier work
T2 sequence (Q8N884 whole entry): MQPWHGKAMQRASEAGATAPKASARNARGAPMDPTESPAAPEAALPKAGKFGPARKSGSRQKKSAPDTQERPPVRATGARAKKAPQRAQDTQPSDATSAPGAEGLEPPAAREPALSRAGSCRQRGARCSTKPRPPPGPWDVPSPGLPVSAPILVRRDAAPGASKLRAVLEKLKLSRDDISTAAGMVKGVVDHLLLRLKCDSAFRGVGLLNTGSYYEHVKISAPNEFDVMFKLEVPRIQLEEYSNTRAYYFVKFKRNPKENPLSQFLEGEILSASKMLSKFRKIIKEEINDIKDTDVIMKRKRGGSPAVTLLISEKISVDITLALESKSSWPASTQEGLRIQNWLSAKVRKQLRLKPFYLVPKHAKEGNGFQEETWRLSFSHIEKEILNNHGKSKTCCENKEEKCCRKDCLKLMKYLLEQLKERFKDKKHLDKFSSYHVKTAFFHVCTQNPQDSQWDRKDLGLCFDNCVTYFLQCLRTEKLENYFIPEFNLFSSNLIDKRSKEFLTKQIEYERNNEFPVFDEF

Human cGAS enzyme = Human cGAS enzyme (Homo sapiens (Human), UniProt Q8N884); test: Human cGAS enzyme assay (hcGAS IC50, in vitro), cGAMP formation by RapidFire MS; assay type: biochemical;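 note: recombinant human cGAS activated by 45 bp dsDNA with 30 µM each ATP and GTP, 90 min, cGAMP vs cyclic-di-GMP standard by MS, 8-point titration from 10 µM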
Sequence of Human cGAS enzyme (Q8N884 whole entry): as above

[4] = target: T1, cellular cGAS activity in baculovirus-stimulated THP1-Dual cells; test: Human cGAS cell assay (THP1(vir) IC50): IFN induction in virus-stimulated THP1-Dual cells, IRF Lucia luciferase reporter; assay type: cell-based;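 note: Eight-point dilution series starting at 10 µM, 1% DMSO, 18 h at 37 °C, luminescence read-out, virus-free wells as 0% and DMSO-treated virus-stimulated wells as 100%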
[5] = tested on: pathway directly downstream of cGAS in cGAMP-stimulated THP1-Dual cells; test: cGAMP stimulated counter cell assay (THP1(cGAMP) IC50): IFN induction in cGAMP-stimulated THP1-Dual cells; assay type: cell-based, human; conditions: for pIC50: Homo sapiens, THP1-Dual; for Ratio THP(cGAMP) IC50/ THP(vir) IC50: selectivity for cGAS inhibition
Excerpt: 6.2 Method: Human cGAS Cell Assay and cGAMP Stimulated Counter Cell Assay (THP1(vir) IC50 and THP1(cGAMP) IC50)
THP1-Dual™ cells (InvivoGen #thpd-nfis) expressing IRF dependent Lucia luciferase reporter were used as basis for both assays. For the detection of cellular cGAS activity cells were stimulated by a baculovirus (pFastbac-1, Invitrogen, no coding insert) infection that delivers the cGAS enzyme stimulating double-stranded DNA (measurement of THP1(vir) IC50).
For the counter assay, cells were stimulated by cGAMP (SigmaAldrich #SML1232) to activate the identical pathway independent and directly downstream of cGAS (measurement of THP1(cGAMP) IC50). Pathway activity was monitored by measuring the Lucia luciferase activity induced by either DNA stimulated cGAS enzyme activity (measurement of THP1(vir) IC50) or by cGAMP directly (measurement of THP1(cGAMP) IC50, counter assay).
Compounds were delivered in 10 mM DMSO solution, serially diluted and transferred to the 384 well assay plate (Greiner #781201) using an Echo acoustic dispenser. Typically, 8 concentrations were used with the highest concentration at 10 μM in the final assay volume followed by ˜1:5 dilution steps. DMSO concentration was set to 1% in the final assay volume. The 384 well assay plate contained 21 test compounds (column 1-22), and DMSO in column 23 and 24.
Cells, cultivated according to manufacturer conditions, were harvested by centrifugation at 300 g/10 min and were then resuspended and diluted to 1.66E5 cells/ml in fresh cell culture medium (RPMI 1640 (Gibco #A10491-01), 10% FCS (Gibco #10500), 1× GlutaMax (Gibco #35050-061), 1× Pen/Strep solution (Gibco #15140-122), 100 μg/ml Normocin (InvivoGen #ant-nr), 100 μg/ml Zeocin (InvivoGen #ant-zn), 10 μg/ml Blasticidin S (Life Technologies #A11139-03)). The baculovirus solution was then added 1:200 (have varied according to virus batch) to the cells (measurement of THP1(vir) IC50). […] 30 μL of the cell/virus-mix were added to each well of the compound plate from column 1-23 via MultiDrop Combi dispenser (5000 cells/well). In column 24, 30 μl/5000 cells/well without virus were added as a low control.
The plates were then incubated for 18 h at 37° C. in a humidified incubator.
Following that, 15 μL of QuantiLuc detection reagent (InvivoGen #rep-qlcg5) were added to each well using a MultiDrop Combi. Measurement was done immediately after the addition using an EnVision reader (US-luminescence read-mode).
Data Evaluation and Calculation:
For data evaluation and calculation, the measurement of the low control was set as 0% control and the measurement of the high control was set as 100% control. The IC50 values were calculated using the standard 4 parameter logistic regression formula. Calculation: [y=(a−d)/(1+(x/c)^b)+d], a=low value, d=high value; x=conc M; c=IC50 M; b=slope

[6] = target: T2, cellular cGAS activity in dsDNA-stimulated human whole blood; test: Human whole blood assay (hWB IC50): IFNα2a production after dsDNA transfection; assay type: cell-based;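 note: IFNα-2a in plasma measured by MSD electrochemiluminescence immunoassay after 22 h at 37 °C, 8-point dilution series from 10 µM top concentration, DMSO wells as controls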
[7] = Table 1, virus-stimulated THP1 cells, read-out: THP(vir) IC50
[8] = Table 1, cGAMP-stimulated THP1 cells, read-out: THP(cGAMP) IC50
[9] = Table 1, dsDNA-stimulated human whole blood

T1 sequence (Q8N884 whole entry): as above

SMILES	pIC50 (Human cGAS enzyme; Table 1)	pIC50 [4, 7]	pIC50 [6, 9]	pIC50 [1]	pIC50 [2]	pIC50 [3]	pIC50 [5, 8]	Ratio THP(cGAMP) IC50/ THP(vir) IC50 ([5]; Table 1)	also measured
C#Cc1cnc(O[C@H]2C[C@@H](C(=O)OC)N(c3nc(C(F)(F)F)nc4c3oc3ccccc34)C2)c(N2CCOC3(COC3)[C@@H]2C)c1 [P03 of PCT/EP2022/062480]				6.73	4.64	5.96			
COc1ncccc1-c1cnc(O[C@H]2C[C@@H](C(=O)O)N(c3nc(C(F)(F)F)nc4c3oc3ccccc34)C2)c(N2CCOC3(COC3)[C@@H]2C)c1 [Ex. 3.14 of PCT/EP2022/062480]				8.00	5.11	7.59			
C[C@@H]1N(c2cc(Br)cnc2O[C@H]2C[C@@H](C(=O)O)N(c3nc(C(F)(F)F)nc4c3oc3ccccc34)C2)CCOC12COC2 [Ex. 1.10 of PCT/EP2022/062480]				7.04	4.79	7.48			
CO[C@]1(c2cc(Cl)cnc2O[C@H]2C[C@@H](C(=O)O)N(c3nc(C(F)F)nc4c3oc3ccccc34)C2)CC(C)(C)S(=O)(=O)C[C@@H]1C [Ex. 1.05 of PCT/EP2022/062496]				7.36	4.88	6.87			
COC(=O)[C@@H]1C[C@H](Oc2ncccc2N2CCOC3(COC3)[C@@H]2C)CN1c1nc(C(F)F)nc2c1oc1ccccc12 [P01 of PCT/EP2022/062480]				6.45	4.58	5.88			
COC(=O)[C@@H]1C[C@H](Oc2ncc(-c3cccnc3OC)cc2N2CCOC3(COC3)[C@@H]2C)CN1c1nc(C(F)(F)F)nc2c1oc1ccccc12 [P04 of PCT/EP2022/062480]				7.17	< 4.78	5.56			
C#Cc1cnc(O[C@H]2C[C@@H](C(=O)O)N(c3nc(C(F)(F)F)nc4c3oc3ccccc34)C2)c([C@@]2(F)CCS(=O)(=O)C[C@@H]2C)c1 [Ex. 2.12 of PCT/EP2022/062496]				8.10	4.66	8.10			
C#Cc1cnc(O[C@H]2C[C@@H](C(=O)O)N(c3nc(C(F)(F)F)nc4c3oc3ccccc34)C2)c(N2CCOC3(COC3)[C@@H]2C)c1 [Ex. 1.12 of PCT/EP2022/062480]				8.15	4.92	7.82			
CC(C)(C(=O)N[C@H]1C[C@@H](C(=O)O)N(c2nc(C(F)(F)F)nc3c2oc2ccccc23)C1)c1cn[nH]c1 [compound 58]									pIC50 (Human cGAS enzyme; Table 2, compounds from WO 2020/142729 re-tested in the applicant's assay): 6.49; pIC50 ([4]; Table 2, compounds from WO 2020/142729, read-out: THP1(vir) IC50): 4.68; pIC50 ([5]; Table 2, compounds from WO 2020/142729, read-out: THP1(cGAMP) IC50): 4.64; pIC50 ([6]; Table 2, compounds from WO 2020/142729): < 5.00
C[C@H]1CN2CC[C@]1(F)c1cc(Cl)cnc1O[C@H]1C[C@@H](C(=O)O)N(C1)c1nc(nc3c1oc1cc(F)ccc13)C(F)(F)CCCOCC2=O [Example 32]	8.30	8.10	8.05				< 5.00	1190	
C[C@H]1CN2CC[C@]1(F)c1cc(Cl)cnc1O[C@H]1C[C@@H](C(=O)O)N(C1)c1nc(nc3c1oc1ccccc13)CCOCCOC2=O [Example 34, (1R,9S,11S,34S)-4-chloro-1-fluoro-34-methyl-31-oxo-8,15,27,30-tetraoxa-6,12,23,32,37-pentaaza-heptacyclo[30.2.2.1^9,12.1^13,24.0^2,7.0^14,22.0^16,21]octatriaconta-2,4,6,13(37),14(22),16(21),17,19,23-nonaene-11-carboxylic acid]	8.10	7.44	7.39				4.80	450	

Now from value to compound, other results behind:

pIC50 (Human cGAS enzyme; Table 1)	pIC50 [4, 7]	pIC50 [6, 9]	SMILES	pIC50 [1]	pIC50 [2]	pIC50 [3]	pIC50 [5, 8]	Ratio THP(cGAMP) IC50/ THP(vir) IC50 ([5]; Table 1)	also measured
7.66	6.85	7.36	C[C@H]1CN2CC[C@]1(F)c1cc(Cl)cnc1O[C@H]1C[C@@H](C(=O)O)N(C1)c1nc(nc3c1oc1ccccc13)COCCCCC2=O [Example 08, (1R,9S,11S,34S)-4-chloro-1-fluoro-34-methyl-31-oxo-8,15,26-trioxa-6,12,23,32,37-pentaazabestacyclo[30.2.2.1^9,12.1^13,24.0^2,7.0^14,22.0^16,21]octatriaconta-2,4,6,13(37),14(22),16(21),17,19,23-nonaene-11-carboxylic acid]				< 5.00	69	
7.60	6.82	6.68	C[C@H]1CN2CC[C@]1(F)c1cc(Cl)cnc1O[C@H]1C[C@@H](C(=O)O)N(C1)c1nc(nc3c1oc1ccccc13)CC(=O)NCCCC2=O [Example 01, (1R,9S,11S,34S)-4-Chloro-1-fluoro-34-methyl-26,31-dioxo-8,15-dioxa-6,12,23,27,32,37-hexaaza-heptacyclo[30.2.2.1^9,12.1^13,24.0^2,7.0^14,22.0^16,21]octatriaconta-2,4,6,13(37),14(22),16(21),17,19,23-nonaene-11-carboxylic acid]				5.54	19	
7.74	7.34	6.56	C[C@@H]1COCCCc2nc(c3oc4ccccc4c3n2)N2C[C@H](C[C@H]2C(=O)O)Oc2ncc(Br)cc2[C@@]2(F)CCN(C[C@@H]2C)C1=O [Example 26]				5.49	70	
8.22	7.46	7.74	C#Cc1cnc2c(c1)[C@@]1(F)CCN(C[C@@H]1C)C(=O)CCCOCCc1nc(c3oc4ccccc4c3n1)N1C[C@H](C[C@H]1C(=O)O)O2 [Example 18, (1R,9S,11S,34S)-4-ethynyl-1-fluoro-34-methyl-31-oxo-8,15,27-trioxa-6,12,23,32,37-pentaazaheptacyclo[30.2.2.1^9,12.1^13,24.0^2,7.0^14,22.0^16,21]octatriaconta-2,4,6,13,16,18,20,22,24(37)-nonaene-11-carboxylic acid]				5.37	122	
8.10	7.14	6.84	CC(=O)c1cnc2c(c1)[C@@]1(F)CCN(C[C@@H]1C)C(=O)CCCOCCc1nc(c3oc4ccccc4c3n1)N1C[C@H](C[C@H]1C(=O)O)O2 [Example 19]				< 5.00	136	
7.77	6.21	7.08	C[C@H]1CN2CC[C@]1(F)c1cc(Cl)cnc1O[C@H]1C[C@@H](C(=O)O)N(C1)c1nc(nc3c1oc1ccccc13)COCCCCCC2=O [Example 12]				5.00	17	
7.96	7.15	7.33	C[C@H]1CN2CC[C@]1(F)c1cc(Cl)cnc1O[C@H]1C[C@@H](C(=O)O)N(C1)c1nc(nc3c1oc1ccccc13)C(F)(F)OCCCCC2=O [Example 15, (1R,9S,11S,34S)-4-chloro-1,25,25-trifluoro-34-methyl-31-oxo-8,15,26-trioxa-6,12,23,32,37-pentaazaheptacyclo[30.2.2.1^9,12.1^13,24.0^2,7.0^14,22.0^16,21]octatriaconta-2(7),3,5,13(37),14(22),16(21),17,19,23-nonaene-11-carboxylic acid]				5.09	117	
